In PubChem BioAssay (NCI):
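Protocol summary: plate cells (96-well), add compound at 5 concentrations, incubate 48 h, interpolate endpoints linearly. TGI marks complete inhibition of growth.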

Experiments:
Assay in all cases: NCI-60 cell line screen, 48 h
MALME-3M melanoma = tested on: MALME-3M melanoma
M14 melanoma = tested on: M14 melanoma
SNB-75 CNS = tested on: SNB-75 CNS
OVCAR-5 ovarian = tested on: OVCAR-5 ovarian
DU-145 prostate = tested on: DU-145 prostate
MOLT-4 leukemia = tested on: MOLT-4 leukemia
HS 578T breast = tested on: HS 578T breast
NCI-H460 lung = tested on: NCI-H460 lung
SK-MEL-5 melanoma = tested on: SK-MEL-5 melanoma
SN12C renal = tested on: SN12C renal
MDA-MB-231 breast = tested on: MDA-MB-231 breast
A549 NSCLC = tested on: A549 NSCLC
786-0 renal = tested on: 786-0 renal
K-562 leukemia = tested on: K-562 leukemia
OVCAR-4 ovarian = tested on: OVCAR-4 ovarian
NCI-H226 lung = tested on: NCI-H226 lung
SR leukemia = tested on: SR leukemia
SK-MEL-28 melanoma = tested on: SK-MEL-28 melanoma
NCI-H522 lung = tested on: NCI-H522 lung
SF-295 CNS = tested on: SF-295 CNS
HOP-62 NSCLC = tested on: HOP-62 NSCLC
UACC-257 melanoma = tested on: UACC-257 melanoma
SF-268 CNS = tested on: SF-268 CNS
IGROV1 ovarian = tested on: IGROV1 ovarian
NCI/ADR-RES ovarian = tested on: NCI/ADR-RES ovarian
KM12 colon = tested on: KM12 colon
UO-31 renal = tested on: UO-31 renal
SW-620 colon = tested on: SW-620 colon
OVCAR-3 ovarian = tested on: OVCAR-3 ovarian
HCT-15 colon = tested on: HCT-15 colon
ACHN renal = tested on: ACHN renal
OVCAR-8 ovarian = tested on: OVCAR-8 ovarian
HOP-92 NSCLC = tested on: HOP-92 NSCLC
HT29 colon = tested on: HT29 colon
MDA-MB-435 = tested on: MDA-MB-435
EKVX NSCLC = tested on: EKVX NSCLC
CAKI-1 renal = tested on: CAKI-1 renal
HCC-2998 colon = tested on: HCC-2998 colon
TK-10 renal = tested on: TK-10 renal
SNB-19 CNS = tested on: SNB-19 CNS
PC-3 prostate = tested on: PC-3 prostate
RXF 393 renal = tested on: RXF 393 renal
COLO 205 colon = tested on: COLO 205 colon
RPMI-8226 leukemia = tested on: RPMI-8226 leukemia
BT-549 breast = tested on: BT-549 breast
HL-60(TB) leukemia = tested on: HL-60(TB) leukemia
T-47D breast = tested on: T-47D breast
A498 renal = tested on: A498 renal
NCI-H23 lung = tested on: NCI-H23 lung
UACC-62 melanoma = tested on: UACC-62 melanoma
SF-539 CNS = tested on: SF-539 CNS
SK-MEL-2 melanoma = tested on: SK-MEL-2 melanoma
MCF7 breast = tested on: MCF7 breast
HCT-116 colon = tested on: HCT-116 colon
CCRF-CEM leukemia = tested on: CCRF-CEM leukemia
MDA-N = tested on: MDA-N
SK-OV-3 ovarian = tested on: SK-OV-3 ovarian
U251 CNS = tested on: U251 CNS

## O=C(O)c1c[nH]c2cc(OCc3ccccc3)ccc2c1=O
MALME-3M melanoma
  TGI: 31.7 µM
M14 melanoma
  TGI: 31.8 µM
SNB-75 CNS
  TGI: 31.4 µM
OVCAR-5 ovarian
  TGI: 42.1 µM
DU-145 prostate
  TGI: 33.3 µM
MOLT-4 leukemia
  TGI: 84 µM
HS 578T breast
  TGI: 45.2 µM
NCI-H460 lung
  TGI: 34.5 µM
SK-MEL-5 melanoma
  TGI: 32 µM
SN12C renal
  TGI: 32.2 µM
MDA-MB-231 breast
  TGI: 48.6 µM
A549 NSCLC
  TGI: 35.5 µM
786-0 renal
  TGI: 32.5 µM
K-562 leukemia
  TGI: 54.3 µM
OVCAR-4 ovarian
  TGI: 31.1 µM
NCI-H226 lung
  TGI: 33.8 µM
SR leukemia
  TGI: 53.8 µM
SK-MEL-28 melanoma
  TGI: 30.1 µM
NCI-H522 lung
  TGI: 30.8 µM
SF-295 CNS
  TGI: 34.4 µM
HOP-62 NSCLC
  TGI: 35.9 µM
UACC-257 melanoma
  TGI: 50.7 µM
SF-268 CNS
  TGI: 29.4 µM
IGROV1 ovarian
  TGI: 32.4 µM
NCI/ADR-RES ovarian
  TGI: 37.8 µM
KM12 colon
  TGI: 33.8 µM
UO-31 renal
  TGI: 31.1 µM
SW-620 colon
  TGI: 40.5 µM
OVCAR-3 ovarian
  TGI: 35.3 µM
HCT-15 colon
  TGI: 36.1 µM
ACHN renal
  TGI: 32.7 µM
OVCAR-8 ovarian
  TGI: 35.3 µM
HOP-92 NSCLC
  TGI: 35.1 µM
HT29 colon
  TGI: 33.3 µM
MDA-MB-435
  TGI: 30 µM
EKVX NSCLC
  TGI: 38.7 µM
CAKI-1 renal
  TGI: 40.1 µM
HCC-2998 colon
  TGI: 32.2 µM
TK-10 renal
  TGI: 39.6 µM
SNB-19 CNS
  TGI: 32.4 µM
PC-3 prostate
  TGI: 31.2 µM
RXF 393 renal
  TGI: 38.2 µM
COLO 205 colon
  TGI: 34.8 µM
RPMI-8226 leukemia
  TGI: 64.9 µM
BT-549 breast
  TGI: 32.5 µM
HL-60(TB) leukemia
  TGI: 2.32 µM
T-47D breast
  TGI: 38.8 µM
A498 renal
  TGI: 31.4 µM
NCI-H23 lung
  TGI: 33.3 µM
UACC-62 melanoma
  TGI: 30.5 µM
SF-539 CNS
  TGI: 36.8 µM
SK-MEL-2 melanoma
  TGI: 33.3 µM
MCF7 breast
  TGI: 39.8 µM
HCT-116 colon
  TGI: 31 µM
CCRF-CEM leukemia
  TGI: 53.2 µM
MDA-N
  TGI: 30.9 µM
SK-OV-3 ovarian
  TGI: 36.6 µM
U251 CNS
  TGI: 36.1 µM

## COc1ccc(N2CCOCC2)cc1
MALME-3M melanoma
  TGI: > 100 µM
M14 melanoma
  TGI: > 100 µM
SNB-75 CNS
  TGI: > 100 µM
OVCAR-5 ovarian
  TGI: > 100 µM
DU-145 prostate
  TGI: > 100 µM
MOLT-4 leukemia
  TGI: > 100 µM
HS 578T breast
  TGI: > 100 µM
NCI-H460 lung
  TGI: > 100 µM
SK-MEL-5 melanoma
  TGI: > 100 µM
SN12C renal
  TGI: > 100 µM
MDA-MB-231 breast
  TGI: > 100 µM
A549 NSCLC
  TGI: > 100 µM
786-0 renal
  TGI: > 100 µM
K-562 leukemia
  TGI: > 100 µM
OVCAR-4 ovarian
  TGI: > 100 µM
NCI-H226 lung
  TGI: > 100 µM
SR leukemia
  TGI: > 100 µM
SK-MEL-28 melanoma
  TGI: > 100 µM
NCI-H522 lung
  TGI: > 100 µM
SF-295 CNS
  TGI: > 100 µM
HOP-62 NSCLC
  TGI: > 100 µM
UACC-257 melanoma
  TGI: > 100 µM
SF-268 CNS
  TGI: > 100 µM
IGROV1 ovarian
  TGI: > 100 µM
NCI/ADR-RES ovarian
  TGI: > 100 µM
KM12 colon
  TGI: > 100 µM
UO-31 renal
  TGI: > 100 µM
SW-620 colon
  TGI: > 100 µM
OVCAR-3 ovarian
  TGI: > 100 µM
HCT-15 colon
  TGI: > 100 µM
ACHN renal
  TGI: > 100 µM
OVCAR-8 ovarian
  TGI: > 100 µM
HOP-92 NSCLC
  TGI: > 100 µM
HT29 colon
  TGI: > 100 µM
MDA-MB-435
  TGI: > 100 µM
EKVX NSCLC
  TGI: > 100 µM
CAKI-1 renal
  TGI: > 100 µM
HCC-2998 colon
  TGI: > 100 µM
TK-10 renal
  TGI: > 100 µM
SNB-19 CNS
  TGI: > 100 µM
PC-3 prostate
  TGI: > 100 µM
RXF 393 renal
  TGI: > 100 µM
COLO 205 colon
  TGI: > 100 µM
RPMI-8226 leukemia
  TGI: > 100 µM
BT-549 breast
  TGI: > 100 µM
HL-60(TB) leukemia
  TGI: > 100 µM
T-47D breast
  TGI: > 100 µM
A498 renal
  TGI: > 100 µM
NCI-H23 lung
  TGI: > 100 µM
UACC-62 melanoma
  TGI: > 100 µM
SF-539 CNS
  TGI: > 100 µM
SK-MEL-2 melanoma
  TGI: > 100 µM
MCF7 breast
  TGI: > 100 µM
HCT-116 colon
  TGI: > 100 µM
CCRF-CEM leukemia
  TGI: > 100 µM
MDA-N
  TGI: > 100 µM
SK-OV-3 ovarian
  TGI: > 100 µM
U251 CNS
  TGI: > 100 µM
